A value given as a limit tells only on which side of the number the result lay.

Common to all, as to type: cell-based
The target in one experiment is T1, human TLR8 (Homo sapiens, UniProt Q9NR97).
T1 construct: host or cells: HEK-Blue cells (HEK293-derived reporter line)
T1 sequence (Q9NR97 27-1041): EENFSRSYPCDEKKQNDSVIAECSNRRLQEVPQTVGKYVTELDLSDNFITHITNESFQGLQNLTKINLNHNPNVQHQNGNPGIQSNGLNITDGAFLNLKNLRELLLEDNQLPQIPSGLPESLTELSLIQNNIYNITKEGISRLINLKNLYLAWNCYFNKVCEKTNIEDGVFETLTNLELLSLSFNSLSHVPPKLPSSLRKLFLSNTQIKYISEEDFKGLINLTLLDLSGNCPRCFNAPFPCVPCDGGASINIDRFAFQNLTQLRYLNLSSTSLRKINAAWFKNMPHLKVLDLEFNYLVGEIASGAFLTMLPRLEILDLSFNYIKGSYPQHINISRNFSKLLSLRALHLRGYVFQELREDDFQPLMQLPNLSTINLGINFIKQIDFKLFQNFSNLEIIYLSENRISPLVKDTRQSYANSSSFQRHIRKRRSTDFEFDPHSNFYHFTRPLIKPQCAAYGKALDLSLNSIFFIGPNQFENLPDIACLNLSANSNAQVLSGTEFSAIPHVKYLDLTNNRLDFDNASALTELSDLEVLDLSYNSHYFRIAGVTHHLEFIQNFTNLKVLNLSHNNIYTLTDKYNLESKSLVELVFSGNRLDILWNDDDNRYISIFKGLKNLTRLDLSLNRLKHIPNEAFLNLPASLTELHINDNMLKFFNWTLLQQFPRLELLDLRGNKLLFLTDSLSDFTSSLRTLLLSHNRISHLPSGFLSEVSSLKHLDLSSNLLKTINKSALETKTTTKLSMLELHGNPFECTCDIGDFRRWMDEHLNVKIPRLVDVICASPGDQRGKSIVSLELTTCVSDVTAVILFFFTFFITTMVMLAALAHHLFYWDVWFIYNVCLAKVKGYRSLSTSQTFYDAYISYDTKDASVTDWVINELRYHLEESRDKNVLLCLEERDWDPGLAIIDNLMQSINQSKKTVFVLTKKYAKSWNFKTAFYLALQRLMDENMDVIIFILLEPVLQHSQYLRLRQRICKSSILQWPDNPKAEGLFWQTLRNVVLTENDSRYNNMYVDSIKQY
The experiment in a line: TLR8 inhibition reporter assay (HEK-Blue cells, SEAP reporter). The settings on record: HEK-Blue cells overexpressing human TLR8; stimulated with R848 15.9 μM; SEAP after 22 hour incubation. The method, then: (§1) TLR7/8/9 Inhibition Reporter Assays
(§2) HEK-Blue™-cells (Invivogen) overexpressing human TLR7, TLR8 or TLR9 receptors were used for screening inhibitors of these receptors using an inducible SEAP (secreted embryonic alkaline phosphatase) reporter gene under the control of the IFN-β minimal promoter fused to five NF-κB and AP-1-binding sites. Briefly, cells are seeded into Greiner 384 well plates (15000 cells per well for TLR7, 20,000 for TLR8 and 25,000 for TLR9) and then treated with test compounds in DMSO to yield a final dose response concentration range of 0.05 nM-50 μM. After a 30 minute compound pre-treatment at room temperature, the cells are then stimulated with a TLR7 ligand (gardiquimod at a final concentration of 7.5 μM), TLR8 ligand (R848 at a final concentration of 15.9 μM) or TLR9 ligand (ODN2006 at a final concentration of 5 nM) to activate NF-κB and AP-1 which induce the production of SEAP. After a 22 hour incubation at 37° C., 5% CO2, SEAP levels are determined with the addition of HEK-Blue™ Detection reagent (Invivogen), a cell culture medium that allows for detection of SEAP, according to manufacturer's specifications. The percent inhibition is determined as the % reduction in the HEK-Blue signal present in wells treated with agonist plus DMSO alone compared to wells treated with a known inhibitor.
A general note: Reporter assays use an easily measured gene product as a stand-in for the process of interest.

The next experiment addresses T2, human TLR9 (Homo sapiens, UniProt Q9NR96).
T2 construct: host or cells: HEK-Blue cells (HEK293-derived reporter line)
T2 sequence (Q9NR96 26-1032): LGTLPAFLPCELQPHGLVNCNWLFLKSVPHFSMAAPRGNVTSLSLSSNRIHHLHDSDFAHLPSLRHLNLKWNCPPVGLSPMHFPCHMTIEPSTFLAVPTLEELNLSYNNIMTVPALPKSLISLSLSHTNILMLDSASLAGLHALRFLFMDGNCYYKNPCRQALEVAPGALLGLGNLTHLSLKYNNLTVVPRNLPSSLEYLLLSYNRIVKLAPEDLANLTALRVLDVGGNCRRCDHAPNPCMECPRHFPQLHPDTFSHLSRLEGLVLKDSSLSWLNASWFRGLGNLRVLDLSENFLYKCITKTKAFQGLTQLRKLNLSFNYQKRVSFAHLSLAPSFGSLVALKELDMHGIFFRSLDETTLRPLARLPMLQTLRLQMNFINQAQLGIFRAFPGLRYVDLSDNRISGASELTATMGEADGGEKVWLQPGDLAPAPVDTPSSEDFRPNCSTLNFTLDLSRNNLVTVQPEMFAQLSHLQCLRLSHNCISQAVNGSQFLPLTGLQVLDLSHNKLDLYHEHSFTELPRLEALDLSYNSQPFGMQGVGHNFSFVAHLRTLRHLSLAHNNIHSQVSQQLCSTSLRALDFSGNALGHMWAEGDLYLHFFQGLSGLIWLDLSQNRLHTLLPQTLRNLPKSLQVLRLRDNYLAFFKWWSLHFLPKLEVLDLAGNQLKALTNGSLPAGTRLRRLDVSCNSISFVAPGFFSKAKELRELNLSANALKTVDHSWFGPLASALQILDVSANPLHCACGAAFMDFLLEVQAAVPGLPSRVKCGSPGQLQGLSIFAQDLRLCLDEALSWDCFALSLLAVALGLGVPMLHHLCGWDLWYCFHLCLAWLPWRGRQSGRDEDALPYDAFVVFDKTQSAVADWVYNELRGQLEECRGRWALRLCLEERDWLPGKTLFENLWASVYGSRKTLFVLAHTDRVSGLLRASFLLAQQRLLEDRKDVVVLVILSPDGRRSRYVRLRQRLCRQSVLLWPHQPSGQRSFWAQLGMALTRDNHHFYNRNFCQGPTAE
The experiment can be described thus: TLR9 inhibition reporter assay (HEK-Blue cells, SEAP reporter). The settings on record: HEK-Blue cells overexpressing human TLR9; stimulated with ODN2006 5 nM; SEAP after 22 hour incubation. The method, then:
as §1, §2

The next experiment addresses T3, human TLR7 (Homo sapiens, UniProt Q9NYK1).
T3 construct: host or cells: HEK-Blue cells (HEK293-derived reporter line)
T3 sequence (Q9NYK1 27-1049): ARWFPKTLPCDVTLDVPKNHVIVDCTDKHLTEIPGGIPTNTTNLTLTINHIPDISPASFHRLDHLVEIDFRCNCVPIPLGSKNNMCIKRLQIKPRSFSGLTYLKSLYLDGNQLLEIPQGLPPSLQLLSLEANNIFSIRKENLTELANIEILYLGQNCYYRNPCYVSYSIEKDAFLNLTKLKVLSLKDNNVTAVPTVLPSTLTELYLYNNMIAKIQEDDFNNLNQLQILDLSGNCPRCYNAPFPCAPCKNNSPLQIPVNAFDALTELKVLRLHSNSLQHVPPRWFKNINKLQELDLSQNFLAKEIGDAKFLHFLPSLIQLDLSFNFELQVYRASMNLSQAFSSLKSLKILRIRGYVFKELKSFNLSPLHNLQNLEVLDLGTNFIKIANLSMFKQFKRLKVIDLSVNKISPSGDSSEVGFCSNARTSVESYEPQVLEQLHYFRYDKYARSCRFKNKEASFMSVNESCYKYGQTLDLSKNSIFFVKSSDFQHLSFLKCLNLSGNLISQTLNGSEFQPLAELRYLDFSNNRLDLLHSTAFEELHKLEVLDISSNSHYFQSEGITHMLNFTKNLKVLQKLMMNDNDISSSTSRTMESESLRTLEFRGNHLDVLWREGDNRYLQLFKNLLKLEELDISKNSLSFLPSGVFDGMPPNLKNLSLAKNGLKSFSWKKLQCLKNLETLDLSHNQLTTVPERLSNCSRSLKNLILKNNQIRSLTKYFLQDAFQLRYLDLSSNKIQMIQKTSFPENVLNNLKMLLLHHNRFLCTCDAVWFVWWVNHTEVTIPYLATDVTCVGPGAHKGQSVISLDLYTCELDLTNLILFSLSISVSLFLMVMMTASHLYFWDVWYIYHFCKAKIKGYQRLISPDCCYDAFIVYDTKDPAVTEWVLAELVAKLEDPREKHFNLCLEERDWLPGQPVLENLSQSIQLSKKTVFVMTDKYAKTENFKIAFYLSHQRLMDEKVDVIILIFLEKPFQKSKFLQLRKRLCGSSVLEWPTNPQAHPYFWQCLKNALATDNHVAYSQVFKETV
The experiment in a line: TLR7 inhibition reporter assay (HEK-Blue cells, SEAP reporter). The settings on record: HEK-Blue cells overexpressing human TLR7; stimulated with gardiquimod 7.5 μM; SEAP after 22 hour incubation. On the procedure:
as §1, §2

For orientation: IC50 means the concentration that inhibits the measured activity by half. Read a low IC50 as inhibition by little substance. With `Cn1c(-c2ccc(S(C)(=O)=O)cc2)cc2ncc(-c3ccc(CN4CCN(CC(C)(C)O)CC4)cc3)cc21` [Example 21], the IC50 at human TLR8 was determined as 8.1 µM; on human TLR9 it was 0.206 µM; against human TLR7, 9.6 µM.

Turning to `CC(C)N1CCN(c2ccc(-c3cnc4cc(-c5ccc(S(C)(=O)=O)cc5)n(C)c4c3)cc2)C[C@@H]1C` [Example 29], the concentration for half-maximal inhibition (IC50) at human TLR8 came to 2.3 µM; against human TLR9, 0.722 µM; against human TLR7, 3.3 µM.

With `Cn1c(-c2ccc(S(C)(=O)=O)cc2)cc2ncc(-c3ccc(CN4CCC(C)(O)CC4)cc3)cc21` [Example 22], the figures for the 50% inhibitory concentration (IC50) against human TLR8, at human TLR9 and at human TLR7 were 14.6 µM, 0.339 µM and 7.9 µM, respectively.

With `Cn1c(-c2ccc(S(C)(=O)=O)cc2)cc2ncc(-c3ccc(N4CCNCC4)cc3)cc21` [Example 20, 1-Methyl-2-(4-(methylsulfonyl)phenyl)-6-(4-(piperazin-1-yl)phenyl)-1H-pyrrolo[3,2-b]pyridine], the half-inhibitory concentration (IC50) is 2.4 µM on human TLR8, 0.171 µM at human TLR9 and 2 µM against human TLR7.

With `CC(C)N1CCN(c2ccc(-c3cnc4cc(-c5ccc(S(C)(=O)=O)cc5)n(C)c4c3)cc2)[C@@H](C)C1` [Example 30], the 50% inhibitory concentration (IC50) against human TLR8 was found to be 5.3 µM; on human TLR9 it was 0.576 µM; against human TLR7, 4.8 µM.

As for `CC(C)N1CCN(Cc2ccc(-c3cnc4cc(-c5ccc(S(C)(=O)=O)cc5)n(C)c4c3)cc2)CC1` [Example 23], the half-maximal inhibitory concentration (IC50) at human TLR8 is 23.2 µM; at human TLR9, 0.069 µM; against human TLR7, over 50 µM.

Turning to `COc1ccc(-c2cc3ccc(-c4ccc(N5CCN(C(C)C)CC5)cc4)nc3n2C)cc1OC` [Example 7, 2-(3,4-Dimethoxyphenyl)-6-(4-(4-isopropylpiperazin-1-yl)phenyl)-1-methyl-1H-pyrrolo[2,3-b]pyridine], the IC50 was at least 50 µM at human TLR8, 4.58 µM against human TLR9 and at least 50 µM against human TLR7.

Consider `CC(C)N1CCN(c2ccc(-c3cc4nc(-c5ccc(S(C)(=O)=O)cc5)cc-4n(C)c3)cc2)CC1` [Example 3, 6-(4-(4-isopropylpiperazin-1-yl)phenyl)-4-methyl-2-(4-(methylsulfonyl)phenyl)-4H-pyrrolo[3,2-b]pyridine], for which the 50% inhibitory concentration (IC50) against human TLR8 amounted to 11.1 µM; against human TLR9 it was 0.018 µM; on human TLR7, 9.7 µM.

For the compound `CC(C)CN1[C@@H]2CC[C@H]1C[C@@H](N1CCC(c3cnc4cc(-c5ccc(S(=O)(=O)C6CC6)cc5)n(C)c4c3)CC1)C2` [Example 37, 2-(4-cyclopropylsulfonylphenyl)-1-methyl-6-[1-[rac-(1S,5R)-8-isobutyl-8-azabicyclo[3.2.1]octan-3-yl]-4-piperidyl]pyrrolo[3,2-b]pyridine], the figures for the IC50 against human TLR8, on human TLR9 and against human TLR7 were over 50 µM, 0.41 µM and 1.1 µM, respectively.

Turning to `COc1cc(-c2cc3ncc(-c4ccc(N5CCN(C(C)C)CC5)cc4)cc3n2C)ccc1C#N` [Example 38, 4-[6-[4-(4-isopropylpiperazin-1-yl)phenyl]-1-methyl-pyrrolo[3,2-b]pyridin-2-yl]-2-methoxy-benzonitrile], the half-inhibitory concentration (IC50) is over 25 µM against human TLR8, 0.505 µM at human TLR9 and over 25 µM against human TLR7.

`CC(C)N1CCN(c2ccc(-c3cnc4cc(-c5ccc(S(C)(=O)=O)cc5)n(C)c4c3)cc2)C[C@H]1C` [Example 32]: the half-inhibitory concentration (IC50) at human TLR8 was 15.1 µM; on human TLR9, 0.243 µM; against human TLR7 it was 11.4 µM.

For the compound `COc1ccc(-c2cc3ncc(-c4ccc(N5CCN(C(C)C)CC5)cc4)cc3n2C)cc1C#N` [Example 39], the figures for the concentration for half-maximal inhibition (IC50) on human TLR8, on human TLR9 and on human TLR7 were over 25 µM, 0.101 µM and over 25 µM, respectively.

For the compound `CC(C)N1[C@H](C)CN(c2ccc(-c3cnc4cc(-c5ccc(S(C)(=O)=O)cc5)n(C)c4c3)cc2)C[C@H]1C` [Example 35], the IC50 on human TLR9 was 0.091 µM.

In turn, `COc1ccc(-c2cc3ncc(-c4ccc(N5CCN(CC(C)(C)O)CC5)cc4)cc3n2C)cc1OC` [Example 4, 1-(4-(4-(2-(3,4-Dimethoxyphenyl)-1-methyl-1H-pyrrolo[3,2-b]pyridin-6-yl)phenyl)piperazin-1-yl)-2-methylpropan-2-ol] had a 50% inhibitory concentration (IC50) against human TLR9 of 0.256 µM.

As to `Cn1c(-c2ccc(S(C)(=O)=O)cc2F)cc2ncc(-c3ccc(N4CCN(C5CC5)CC4)cc3)cc21` [Example 45], the concentration for half-maximal inhibition (IC50) on human TLR9 is over 50 µM.

The values above are taken from patent US20230322770A1, “SUBSTITUTED HETEROARYL COMPOUNDS USEFUL AS INHIBITORS OF TLR9” (BRISTOL-MYERS SQUIBB COMPANY, priority 2020, published 2023).
